# Where two headings read alike, the source gives them in different places.
# Tests used:
# CDK1-CYCLIN B = CDK1-CYCLIN B (Homo sapiens, UniProt P06493); experiment: CDK protein kinase inhibition by ADP-Glo assay, CDK1-CYCLIN B; format: biochemical; settings: for IC50: ADP-Glo, 1000 μM ATP, read-out: CDK1-CYCLINB, IC50; for CDK2 Fold selectivity, CDK1: CDK2 versus CDK1
# In short: (§1)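 Enzyme reactions contain 1000 μM ATP and 5 mM MgCl2 in HEPES pH 7.5 with BSA, Triton X-100, DTT, orthovanadate and beta-glycerophosphate. They proceed at 22° C before ADP-Glo luminescent detection of ADP produced.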
# CDK2-CYCLIN E1 = CDK2-CYCLIN E1 (Homo sapiens, UniProt P24941); experiment: CDK protein kinase inhibition by ADP-Glo assay, CDK2-CYCLIN E1; format: biochemical; settings: ADP-Glo, 1000 μM ATP, read-out: CDK2-CYCLINE, IC50
# In short: as §1
# CDK4-CYCLIN D1 = CDK4-CYCLIN D1 (Homo sapiens, UniProt P11802); experiment: CDK protein kinase inhibition by ADP-Glo assay, CDK4-CYCLIN D1; format: biochemical; settings: for IC50: ADP-Glo, 1000 μM ATP, read-out: CDK4-CYCLIND1, IC50; for CDK2 Fold selectivity, CDK4: CDK2 versus CDK4
# In short: as §1
# CDK6-CYCLIN D3 = CDK6-CYCLIN D3 (Homo sapiens, UniProt Q00534); experiment: CDK protein kinase inhibition by ADP-Glo assay, CDK6-CYCLIN D3; format: biochemical; settings: for IC50: ADP-Glo, 1000 μM ATP, read-out: CDK6-CYCLIND3, IC50; for CDK2 Fold selectivity, CDK6: CDK2 versus CDK6
# In short: as §1
# CDK9-CYCLIN T1 = CDK9-CYCLIN T1 (Homo sapiens, UniProt P50750); experiment: CDK protein kinase inhibition by ADP-Glo assay, CDK9-CYCLIN T1; format: biochemical; settings: for IC50: ADP-Glo, 1000 μM ATP, read-out: CDK9-CYCLINT1, IC50; for CDK2 Fold selectivity, CDK9: CDK2 versus CDK9
# In short: as §1
# [1] = tested on: Phospho-Rb (Ser807/811) in OVCAR3 cells; experiment: Phospho-Rb expression inhibition in OVCAR3 cells quantified by In Cell Western; format: cell-based; settings: Homo sapiens, OVCAR-3, 24 hours, read-out: OVCAR-3 pRb IC50
# In short: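 In-cell western: after 24 h compound exposure at 37° C, fixed OVCAR3 cells co-stained for pRb Ser807/811 (800 nm channel) and total Rb (680 nm channel), imaged by LI-COR Odyssey.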
# [2] = tested on: CCNE1-amplified OVCAR3 cells; experiment: Cell growth inhibition of CCNE1-amplified OVCAR3 cells (CellTiter-Glo); format: cell-based; settings: Homo sapiens, OVCAR-3, 144 h, 6 days
# In short: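 Growth read-out was CellTiter-Glo luminescence, taken after 10 min at room temperature at the end of a 6-day compound exposure at 37 °C. Compounds were diluted from DMSO stocks across various concentrations.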
# CCNE1-normal SKOV3 cells = experiment: Cell growth inhibition of CCNE1-normal SKOV3 cells (CellTiter-Glo); format: cell-based; settings: Homo sapiens, SK-OV-3, 144 h, 6 days
# In short: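 Growth was measured by CellTiter-Glo luminescence after 6 days' compound exposure at 37 °C. Cells were plated one day before dosing at 1000 per well in medium with 10% FBS, and compounds were diluted from DMSO stocks.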
# Chain of CDK9-CYCLIN T1 (P50750 whole entry): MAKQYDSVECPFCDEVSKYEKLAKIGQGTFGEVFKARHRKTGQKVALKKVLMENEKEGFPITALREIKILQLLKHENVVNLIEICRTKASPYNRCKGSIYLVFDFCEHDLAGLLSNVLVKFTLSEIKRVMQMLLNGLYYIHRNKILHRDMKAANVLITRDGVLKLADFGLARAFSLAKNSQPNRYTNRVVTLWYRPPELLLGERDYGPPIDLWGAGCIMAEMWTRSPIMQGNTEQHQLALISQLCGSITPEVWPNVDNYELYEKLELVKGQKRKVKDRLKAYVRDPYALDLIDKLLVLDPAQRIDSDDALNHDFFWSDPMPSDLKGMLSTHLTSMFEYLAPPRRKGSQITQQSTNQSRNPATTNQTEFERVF
# Chain of CDK9-CYCLIN T1 (O60563 whole entry partner): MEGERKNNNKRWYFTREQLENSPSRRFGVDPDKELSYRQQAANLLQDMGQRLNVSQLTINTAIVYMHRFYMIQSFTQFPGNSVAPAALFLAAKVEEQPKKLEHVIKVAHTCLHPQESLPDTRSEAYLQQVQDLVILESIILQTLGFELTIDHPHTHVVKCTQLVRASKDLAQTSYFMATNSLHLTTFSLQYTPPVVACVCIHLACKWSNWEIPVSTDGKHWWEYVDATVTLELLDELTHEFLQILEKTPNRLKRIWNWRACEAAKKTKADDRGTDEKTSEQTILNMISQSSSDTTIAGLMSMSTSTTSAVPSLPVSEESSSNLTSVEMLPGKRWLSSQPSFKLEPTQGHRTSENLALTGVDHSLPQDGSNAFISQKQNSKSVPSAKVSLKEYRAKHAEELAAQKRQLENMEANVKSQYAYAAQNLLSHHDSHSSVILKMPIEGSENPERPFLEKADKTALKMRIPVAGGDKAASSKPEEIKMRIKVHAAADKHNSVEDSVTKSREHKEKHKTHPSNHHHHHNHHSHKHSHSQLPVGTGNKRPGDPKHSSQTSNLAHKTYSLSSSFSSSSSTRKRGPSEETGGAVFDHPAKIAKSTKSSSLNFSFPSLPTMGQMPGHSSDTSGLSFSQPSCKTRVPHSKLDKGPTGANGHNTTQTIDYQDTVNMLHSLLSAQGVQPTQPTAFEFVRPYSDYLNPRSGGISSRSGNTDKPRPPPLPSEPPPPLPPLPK
# Chain of CDK6-CYCLIN D3 (Q00534 whole entry): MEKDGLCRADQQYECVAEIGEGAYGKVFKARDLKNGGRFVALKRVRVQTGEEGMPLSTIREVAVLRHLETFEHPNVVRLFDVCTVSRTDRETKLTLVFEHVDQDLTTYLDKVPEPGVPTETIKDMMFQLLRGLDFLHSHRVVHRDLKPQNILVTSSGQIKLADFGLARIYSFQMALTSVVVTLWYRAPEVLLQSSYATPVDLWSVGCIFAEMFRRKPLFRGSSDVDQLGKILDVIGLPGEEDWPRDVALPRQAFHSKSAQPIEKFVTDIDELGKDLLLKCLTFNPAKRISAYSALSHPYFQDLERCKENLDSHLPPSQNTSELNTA
# Chain of CDK6-CYCLIN D3 (P30281 whole entry partner): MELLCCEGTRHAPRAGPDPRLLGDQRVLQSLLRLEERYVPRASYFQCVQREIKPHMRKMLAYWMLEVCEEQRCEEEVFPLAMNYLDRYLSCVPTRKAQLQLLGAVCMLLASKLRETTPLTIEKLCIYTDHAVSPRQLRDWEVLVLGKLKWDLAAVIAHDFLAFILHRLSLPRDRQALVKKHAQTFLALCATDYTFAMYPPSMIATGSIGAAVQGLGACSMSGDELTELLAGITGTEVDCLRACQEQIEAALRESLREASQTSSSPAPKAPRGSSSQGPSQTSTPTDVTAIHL
# Chain of CDK4-CYCLIN D1 (P11802 whole entry): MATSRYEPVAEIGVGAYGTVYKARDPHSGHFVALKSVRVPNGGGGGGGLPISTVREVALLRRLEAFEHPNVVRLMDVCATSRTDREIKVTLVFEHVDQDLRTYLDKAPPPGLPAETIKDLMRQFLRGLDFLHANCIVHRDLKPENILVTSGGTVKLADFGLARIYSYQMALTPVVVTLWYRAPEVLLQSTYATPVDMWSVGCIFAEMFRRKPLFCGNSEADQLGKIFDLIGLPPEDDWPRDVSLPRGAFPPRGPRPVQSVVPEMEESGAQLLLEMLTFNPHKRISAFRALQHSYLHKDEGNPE
# Chain of CDK4-CYCLIN D1 (P24385 whole entry partner): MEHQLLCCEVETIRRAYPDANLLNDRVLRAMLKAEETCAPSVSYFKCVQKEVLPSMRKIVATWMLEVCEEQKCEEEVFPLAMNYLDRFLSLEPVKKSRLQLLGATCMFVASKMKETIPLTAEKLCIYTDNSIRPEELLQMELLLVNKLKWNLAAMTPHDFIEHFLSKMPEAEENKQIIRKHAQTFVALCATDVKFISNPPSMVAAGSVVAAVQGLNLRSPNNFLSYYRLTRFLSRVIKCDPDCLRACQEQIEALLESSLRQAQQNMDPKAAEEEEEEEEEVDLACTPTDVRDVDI
# Chain of CDK1-CYCLIN B (P06493 whole entry): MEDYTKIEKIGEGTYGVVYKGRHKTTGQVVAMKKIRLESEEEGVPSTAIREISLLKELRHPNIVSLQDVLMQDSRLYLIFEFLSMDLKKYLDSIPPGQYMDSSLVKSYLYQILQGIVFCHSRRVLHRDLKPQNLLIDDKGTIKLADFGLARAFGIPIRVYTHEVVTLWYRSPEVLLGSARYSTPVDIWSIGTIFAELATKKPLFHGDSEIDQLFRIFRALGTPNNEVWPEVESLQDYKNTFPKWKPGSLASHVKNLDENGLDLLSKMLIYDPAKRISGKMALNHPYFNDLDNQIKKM
# Chain of CDK1-CYCLIN B (P14635 whole entry partner): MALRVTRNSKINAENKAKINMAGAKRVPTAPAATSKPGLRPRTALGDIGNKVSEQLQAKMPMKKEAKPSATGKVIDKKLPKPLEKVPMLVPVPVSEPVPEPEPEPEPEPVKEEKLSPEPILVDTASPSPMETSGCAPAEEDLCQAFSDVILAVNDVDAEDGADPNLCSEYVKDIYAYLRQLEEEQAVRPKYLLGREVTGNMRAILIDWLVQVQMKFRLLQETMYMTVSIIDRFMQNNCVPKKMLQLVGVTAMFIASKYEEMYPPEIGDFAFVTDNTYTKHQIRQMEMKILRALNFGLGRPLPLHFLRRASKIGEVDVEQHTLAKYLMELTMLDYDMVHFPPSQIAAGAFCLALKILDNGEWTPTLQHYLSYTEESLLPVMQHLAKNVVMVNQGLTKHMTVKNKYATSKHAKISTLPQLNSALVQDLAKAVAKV
IC50 (CDK1-CYCLIN B; Table 19),"CDK2 Fold selectivity, CDK1 (CDK1-CYCLIN B; Table 20)",IC50 (CDK2-CYCLIN E1; Table 19),IC50 (CDK4-CYCLIN D1; Table 19),"CDK2 Fold selectivity, CDK4 (CDK4-CYCLIN D1; Table 20)",IC50 (CDK6-CYCLIN D3; Table 19),"CDK2 Fold selectivity, CDK6 (CDK6-CYCLIN D3; Table 20)",IC50 (CDK9-CYCLIN T1; Table 19),"CDK2 Fold selectivity, CDK9 (CDK9-CYCLIN T1; Table 20)",IC50 [1],IC50 [2],IC50 (CDK1-CYCLIN B; Table 21),"CDK2 Fold selectivity, CDK1 (CDK1-CYCLIN B; Table 22)",IC50 (CDK2-CYCLIN E1; Table 21),IC50 (CDK4-CYCLIN D1; Table 21),"CDK2 Fold selectivity, CDK4 (CDK4-CYCLIN D1; Table 22)",IC50 (CDK6-CYCLIN D3; Table 21),"CDK2 Fold selectivity, CDK6 (CDK6-CYCLIN D3; Table 22)",IC50 (CDK9-CYCLIN T1; Table 21),SMILES,IC50 (CCNE1-normal SKOV3 cells),also measured
100 to 500 nM,"E (E, <20)",50 to 100 nM,100 to 500 nM,"E (E, <20)",100 to 500 nM,"E (E, <20)",100 to 500 nM,"E (E, <20)",10 to 50 nM,50 to 250 nM,,,,,,,,,"C[C@@H]1CC/C=C/c2cc(ccn2)Nc2cc(n[nH]2)[C@H]2CC[C@H](C2)OC(=O)N1 [Compound 126, (1^1S,1^3R,2^4Z,5E,9R)-9-methyl-2^1H-12-oxa-3,10-diaza-4(4,2)-pyridina-2(3,5)-pyrazola-1(1,3)-cyclopentanacyclododecaphan-5-en-11-one]",250 to 1250 nM,
100 to 500 nM,"E (E, <20)",10 to 50 nM,> 500 nM,"E (E, <20)",> 500 nM,"D (D, >20 and ≤50)",> 500 nM,"D (D, >20 and ≤50)",10 to 50 nM,50 to 250 nM,,,,,,,,,"C[C@@H]1CCC#Cc2cc(ccn2)Nc2cc(n[nH]2)[C@H]2CC[C@H](C2)OC(=O)N1 [Compound 137, (1^1S,1^3R,2^4Z,9R)-9-methyl-2^1H-12-oxa-3,10-diaza-4(4,2)-pyridina-2(3,5)-pyrazola-1(1,3)-cyclopentanacyclododecaphan-5-yn-11-one]",> 1250 nM,
,,,,,,,,,2 to 10 nM,2 to 10 nM,100 to 500 nM,"E (E, <20)",≤ 10 nM,100 to 500 nM,"D (D, >20 and ≤50)",100 to 500 nM,"D (D, >20 and ≤50)",100 to 500 nM,"C[C@H]1Oc2cc(ccn2)Nc2cc(n[nH]2)[C@H]2CC[C@H](C2)OC(=O)N[C@H]2C[C@H]1C2 [Compound 144, (1^1S,1^3R,7^1R,7^3R,6R,Z)-6-methyl-2^1H-5,10-dioxa-3,8-diaza-4(4,2)-pyridina-2(3,5)-pyrazola-1(1,3)-cyclopentana-7(1,3)-cyclobutanacyclodecaphan-9-one]",250 to 1250 nM,"CDK2 Fold selectivity, CDK9 (CDK9-CYCLIN T1; Table 22): C (C, >50 and ≤100)"
,,,,,,,,,≤ 2 nM,2 to 10 nM,10 to 50 nM,"E (E, <20)",≤ 10 nM,50 to 100 nM,"E (E, <20)",50 to 100 nM,"D (D, >20 and ≤50)",100 to 500 nM,"C[C@H]1Oc2cncc(c2)Nc2cc(n[nH]2)[C@H]2CC[C@H](C2)OC(=O)N[C@H]2C[C@H]1C2 [Compound 148, (1^1S,1^3R,7^1R,7^3R,6R,Z)-6-methyl-2^1H-5,10-dioxa-3,8-diaza-4(3,5)-pyridina-2(3,5)-pyrazola-1(1,3)-cyclopentana-7(1,3)-cyclobutanacyclodecaphan-9-one]",250 to 1250 nM,"CDK2 Fold selectivity, CDK9 (CDK9-CYCLIN T1; Table 22): D (D, >20 and ≤50)"

SMILES,IC50 (CDK1-CYCLIN B; Table 19),"CDK2 Fold selectivity, CDK1 (CDK1-CYCLIN B; Table 20)",IC50 (CDK2-CYCLIN E1; Table 19),IC50 (CDK4-CYCLIN D1; Table 19),"CDK2 Fold selectivity, CDK4 (CDK4-CYCLIN D1; Table 20)",IC50 (CDK6-CYCLIN D3; Table 19),"CDK2 Fold selectivity, CDK6 (CDK6-CYCLIN D3; Table 20)",IC50 (CDK9-CYCLIN T1; Table 19),"CDK2 Fold selectivity, CDK9 (CDK9-CYCLIN T1; Table 20)",IC50 [1],IC50 [2],IC50 (CDK1-CYCLIN B; Table 21),"CDK2 Fold selectivity, CDK1 (CDK1-CYCLIN B; Table 22)",IC50 (CDK2-CYCLIN E1; Table 21),IC50 (CDK4-CYCLIN D1; Table 21),"CDK2 Fold selectivity, CDK4 (CDK4-CYCLIN D1; Table 22)",IC50 (CDK6-CYCLIN D3; Table 21),"CDK2 Fold selectivity, CDK6 (CDK6-CYCLIN D3; Table 22)",IC50 (CDK9-CYCLIN T1; Table 21),IC50 (CCNE1-normal SKOV3 cells),also measured
"O=C1NC2CC3(C2)CC(C3)Oc2cc(ccn2)Nc2cc(n[nH]2)[C@H]2CC[C@H](C2)O1 [Compound 128, (6^1S,6^3R,Z)-5^1H-2,7-dioxa-4,9-diaza-3(2,4)-pyridina-5(5,3)-pyrazola-6(1,3)-cyclopentana-1,10(1,3)-dicyclobutanadecaphan-8-one]",,,,,,,,,,2 to 10 nM,2 to 10 nM,,,,,,,,,250 to 1250 nM,"IC50 (CDK1-CYCLIN B; Table 17): 10 to 50 nM; CDK2 Fold selectivity, CDK1 (CDK1-CYCLIN B; Table 18): E (E, <20); IC50 (CDK2-CYCLIN E1; Table 17): ≤ 10 nM; IC50 (CDK4-CYCLIN D1; Table 17): 10 to 50 nM; CDK2 Fold selectivity, CDK4 (CDK4-CYCLIN D1; Table 18): D (D, >20 and ≤50); IC50 (CDK6-CYCLIN D3; Table 17): 10 to 50 nM; CDK2 Fold selectivity, CDK6 (CDK6-CYCLIN D3; Table 18): E (E, <20); IC50 (CDK9-CYCLIN T1; Table 17): 10 to 50 nM; CDK2 Fold selectivity, CDK9 (CDK9-CYCLIN T1; Table 18): E (E, <20)"

# Reference: patent publication US20240317777A1, “NOVEL MACROCYCLIC AMINOPYRAZOLE COMPOUNDS AS CDK2 INHIBITORS” (Accutar Biotechnology Inc., priority 2023, published 2024)
